Activity calls are given as the source filed them.
Experiments:
Protein Wnt-3a = Protein Wnt-3a (Mus musculus, UniProt P27467); test: antagonism of Wnt3a pathway luciferase reporter – Wnt-LIGHT cells, luminescence, selectivity assay for Gli-SUFU antagonist project, dose response (AID 651570); type: functional; details: read-out: IC50_Mean;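 also: Wnt-LIGHT reporter cells stimulated with conditioned medium from Wnt3a-producing cells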
[1] = viability of HCT116 lacking mutant beta-catenin – cell-based, human colon tumor, dose response (AID 1045); type: functional;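 also: HCT116 colon tumor cells with beta catenin knocked out; cells exposed to compound for 60 hours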
[2] = target: T1, Sphingosine 1-phosphate receptor 4 (Homo sapiens, UniProt O95977); test: Fluorescence dose response cell-based high throughput screening assay for agonists of the Sphingosine 1-Phosphate Receptor 4 (S1P4). [Related pubchem assays: 1509 (Primary screen.), 1523 (Confirmation screen in triplicates.)]; type: functional
T1 sequence (O95977 whole entry): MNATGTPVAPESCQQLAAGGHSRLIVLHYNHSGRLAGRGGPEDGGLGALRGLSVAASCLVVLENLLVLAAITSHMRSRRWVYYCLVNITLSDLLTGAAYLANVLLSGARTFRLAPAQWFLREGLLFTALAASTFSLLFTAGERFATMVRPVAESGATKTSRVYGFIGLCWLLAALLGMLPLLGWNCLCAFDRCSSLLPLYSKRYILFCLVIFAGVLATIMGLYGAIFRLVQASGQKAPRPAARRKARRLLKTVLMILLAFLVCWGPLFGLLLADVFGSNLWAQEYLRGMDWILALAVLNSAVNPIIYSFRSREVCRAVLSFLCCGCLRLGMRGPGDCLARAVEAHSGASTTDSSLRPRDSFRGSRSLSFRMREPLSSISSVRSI

[3] = HEK-293T viability loss after treatment – luminescence, T-cell screen hits, cytotoxicity control for TCR NF-kB inhibitor project, dose response (AID 489026); type: functional, cell-based;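 also: cells exposed to compound about 14 hours before the viability readout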
[4] = target: Sphingosine 1-phosphate receptor 1 (Homo sapiens, UniProt P21453); test: Fluorescence-based counterscreen assay for S1P4 agonists: Cell-based dose response high throughput screening assay to identify agonists of the Sphingosine 1-Phosphate Receptor 1 (S1P1). [Related pubchem assays (depositor defined):AID1509, AID1523, AID1801, AID463107, AID463118, AID463119, AID463122, AID463123, AID463129, AID463225, AID504400, AID504460]; type: functional
Chain of Sphingosine 1-phosphate receptor 1 (P21453 whole entry): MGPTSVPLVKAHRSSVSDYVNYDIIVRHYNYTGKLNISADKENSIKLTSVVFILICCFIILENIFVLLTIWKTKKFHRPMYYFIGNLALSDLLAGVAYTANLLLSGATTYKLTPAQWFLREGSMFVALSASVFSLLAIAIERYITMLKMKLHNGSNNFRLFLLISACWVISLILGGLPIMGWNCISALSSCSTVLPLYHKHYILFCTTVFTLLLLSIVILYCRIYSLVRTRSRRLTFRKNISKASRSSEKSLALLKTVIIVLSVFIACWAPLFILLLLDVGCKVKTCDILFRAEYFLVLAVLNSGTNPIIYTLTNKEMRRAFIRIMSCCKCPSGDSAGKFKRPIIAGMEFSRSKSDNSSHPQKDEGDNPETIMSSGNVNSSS

[5] = viability of PTEN-deleted HCT116 cells – cell-based, HCT116 PTEN knockout, dose response (AID 1047); type: functional;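 also: HCT116 colon tumor cells with PTEN knocked out; cells exposed to compound for 60 hours before readout; potency for loss of cell viability measured by luminescence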
Cannabinoid receptor 1 [6] = target: T2, Cannabinoid receptor 1 (Homo sapiens, UniProt P21554); test: SAR analysis of agonists of the Cannabinoid Receptor 1 using an Image-Based Assay - Set 2. [Related pubchem assays (depositor defined):AID2013, AID2026]; type: functional
T2 sequence (P21554 whole entry): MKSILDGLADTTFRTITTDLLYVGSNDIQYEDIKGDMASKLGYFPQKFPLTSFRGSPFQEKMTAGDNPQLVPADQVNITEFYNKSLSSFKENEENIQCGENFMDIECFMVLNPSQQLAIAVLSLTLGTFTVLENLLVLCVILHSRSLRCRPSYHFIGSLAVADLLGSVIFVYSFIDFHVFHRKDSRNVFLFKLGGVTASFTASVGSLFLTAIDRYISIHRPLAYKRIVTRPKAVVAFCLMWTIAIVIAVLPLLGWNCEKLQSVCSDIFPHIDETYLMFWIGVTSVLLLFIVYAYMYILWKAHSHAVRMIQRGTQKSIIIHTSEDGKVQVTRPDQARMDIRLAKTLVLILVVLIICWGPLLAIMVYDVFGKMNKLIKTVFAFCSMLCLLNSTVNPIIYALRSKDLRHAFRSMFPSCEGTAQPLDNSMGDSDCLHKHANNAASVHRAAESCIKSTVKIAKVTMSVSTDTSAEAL

Cannabinoid receptor 1 [7] = target: T2, Cannabinoid receptor 1; test: SAR analysis of antagonists of the Cannabinoid Receptor 1 using an Image-Based Assay - Set 2. [Related pubchem assays (depositor defined):AID2013, AID2026]; type: functional
Cytochrome P450 2D6 = Cytochrome P450 2D6 (Homo sapiens, UniProt P10635);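 also: CYP2D6 member of a cytochrome P450 panel assay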
Chain of Cytochrome P450 2D6 (P10635 whole entry): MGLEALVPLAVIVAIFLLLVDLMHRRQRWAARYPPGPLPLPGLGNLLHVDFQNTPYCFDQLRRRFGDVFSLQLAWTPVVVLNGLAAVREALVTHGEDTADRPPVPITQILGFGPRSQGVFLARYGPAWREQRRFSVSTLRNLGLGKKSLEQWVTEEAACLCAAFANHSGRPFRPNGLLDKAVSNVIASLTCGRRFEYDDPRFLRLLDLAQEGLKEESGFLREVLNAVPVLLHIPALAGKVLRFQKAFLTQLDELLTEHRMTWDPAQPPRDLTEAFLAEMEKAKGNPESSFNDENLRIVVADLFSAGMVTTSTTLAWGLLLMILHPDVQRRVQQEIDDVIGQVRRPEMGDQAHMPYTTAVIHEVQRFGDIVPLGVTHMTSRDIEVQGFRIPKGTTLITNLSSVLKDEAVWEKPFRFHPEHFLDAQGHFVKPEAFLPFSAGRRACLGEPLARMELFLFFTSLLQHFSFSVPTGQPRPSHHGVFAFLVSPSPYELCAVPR

[8] = target: T3, G-protein coupled receptor 35 (Homo sapiens, UniProt Q9HC97); test: SAR analysis of Agonists of the GPR35 Receptor using an Image-Based Assay - Set 2. [Related pubchem assays (depositor defined):AID2013, AID2026]; type: functional
T3 sequence (Q9HC97 whole entry): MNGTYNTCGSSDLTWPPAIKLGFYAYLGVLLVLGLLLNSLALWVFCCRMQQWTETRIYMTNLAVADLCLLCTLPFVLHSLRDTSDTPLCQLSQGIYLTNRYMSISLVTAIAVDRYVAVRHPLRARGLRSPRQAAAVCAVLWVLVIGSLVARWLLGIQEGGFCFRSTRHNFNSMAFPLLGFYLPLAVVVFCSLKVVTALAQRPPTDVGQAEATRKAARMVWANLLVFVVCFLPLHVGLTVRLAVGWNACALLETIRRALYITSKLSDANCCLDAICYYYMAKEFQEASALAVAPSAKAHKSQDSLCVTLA

Cannabinoid receptor 2 [9] = target: T4, Cannabinoid receptor 2 (Homo sapiens, UniProt P34972); test: SAR analysis of agonists of the Cannabinoid Receptor 2 using an Image-Based Assay. [Related pubchem assays (depositor defined):AID2013, AID2026]; type: functional
T4 sequence (P34972 whole entry): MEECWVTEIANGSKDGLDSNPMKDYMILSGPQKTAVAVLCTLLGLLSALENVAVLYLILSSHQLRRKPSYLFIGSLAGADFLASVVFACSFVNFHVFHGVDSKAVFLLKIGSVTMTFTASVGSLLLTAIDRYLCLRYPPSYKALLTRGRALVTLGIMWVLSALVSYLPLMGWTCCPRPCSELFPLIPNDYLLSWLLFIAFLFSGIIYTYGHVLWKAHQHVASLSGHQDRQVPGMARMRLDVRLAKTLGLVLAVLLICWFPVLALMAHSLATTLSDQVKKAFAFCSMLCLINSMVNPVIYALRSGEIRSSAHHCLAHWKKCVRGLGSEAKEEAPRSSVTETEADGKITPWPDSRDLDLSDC

Cannabinoid receptor 2 [10] = target: T4, Cannabinoid receptor 2; test: SAR analysis of antagonists of the Cannabinoid Receptor 2 using an Image-Based Assay. [Related pubchem assays (depositor defined):AID2013, AID2026]; type: functional
[11] = target: Peroxisome proliferator-activated receptor gamma/Nuclear receptor corepressor 2 (Homo sapiens, UniProt P37231+Q9Y618); test: Counterscreen for NR2E3 inverse agonists: TR-FRET-based biochemical high throughput dose response assay to identify inverse agonists of the interaction between peroxisome proliferator-activated receptor gamma (PPARg) and nuclear receptor co-repressor 2 (NCOR2).; type: functional
[12] = test system: Streptococcus sp. 'group A'; test: Streptococcus pyogenes SK(-)GAS viability under kanamycin – luminescence, BacTiterGlo, confirmation, counter-screen for streptokinase expression inhibitor project, dose response (AID 1900); type: functional, organism-based
[13] = target: T5, G-protein coupled receptor 55 (Homo sapiens, UniProt Q9Y2T6); test: inhibition of LPI-stimulated GPR55 beta-arrestin translocation – imaging, U2OS, beta-arrestin-GFP, LPI agonist, primary screen (AID 2013); type: functional;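 also: antagonist potency measured as reduced agonist-driven arrestin aggregation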
T5 sequence (Q9Y2T6 whole entry): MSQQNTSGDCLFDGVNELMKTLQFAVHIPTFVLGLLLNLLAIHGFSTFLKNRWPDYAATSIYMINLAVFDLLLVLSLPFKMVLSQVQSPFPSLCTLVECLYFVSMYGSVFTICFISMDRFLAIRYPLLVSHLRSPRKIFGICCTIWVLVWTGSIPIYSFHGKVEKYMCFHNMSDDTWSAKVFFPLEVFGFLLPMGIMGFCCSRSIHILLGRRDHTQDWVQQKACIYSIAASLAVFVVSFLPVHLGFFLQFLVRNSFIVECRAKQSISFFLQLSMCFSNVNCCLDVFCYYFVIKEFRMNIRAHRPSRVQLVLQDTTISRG

Cytochrome P450 3A4 = Cytochrome P450 3A4 (Homo sapiens, UniProt P08684);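 also: CYP3A4 tested as one member of a cytochrome P450 panel screen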
Chain of Cytochrome P450 3A4 (P08684 whole entry): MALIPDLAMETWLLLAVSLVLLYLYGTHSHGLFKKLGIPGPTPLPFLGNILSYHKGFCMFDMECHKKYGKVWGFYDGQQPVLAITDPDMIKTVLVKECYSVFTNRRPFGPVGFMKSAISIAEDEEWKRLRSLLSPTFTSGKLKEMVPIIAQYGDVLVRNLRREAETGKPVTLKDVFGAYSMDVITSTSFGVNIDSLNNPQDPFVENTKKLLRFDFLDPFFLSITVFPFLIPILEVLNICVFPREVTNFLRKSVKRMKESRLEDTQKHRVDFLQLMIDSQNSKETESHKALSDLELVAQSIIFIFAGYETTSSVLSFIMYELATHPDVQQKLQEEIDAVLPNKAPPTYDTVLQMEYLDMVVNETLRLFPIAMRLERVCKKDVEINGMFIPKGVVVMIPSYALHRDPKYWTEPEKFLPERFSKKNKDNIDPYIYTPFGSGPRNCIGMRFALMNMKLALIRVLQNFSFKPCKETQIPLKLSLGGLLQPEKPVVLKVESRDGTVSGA

Streptokinase A = target: T6, Streptokinase A (Streptococcus pyogenes serotype M1, UniProt P10520); test: viability-normalized secreted streptokinase activity reduction – plasminogen activation absorbance, OD405, dose response (AID 1914); type: functional, Streptococcus pyogenes M1 GAS;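 also: secreted streptokinase activity via plasminogen activation per viability signal from cell pellet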
T6 sequence (P10520 whole entry): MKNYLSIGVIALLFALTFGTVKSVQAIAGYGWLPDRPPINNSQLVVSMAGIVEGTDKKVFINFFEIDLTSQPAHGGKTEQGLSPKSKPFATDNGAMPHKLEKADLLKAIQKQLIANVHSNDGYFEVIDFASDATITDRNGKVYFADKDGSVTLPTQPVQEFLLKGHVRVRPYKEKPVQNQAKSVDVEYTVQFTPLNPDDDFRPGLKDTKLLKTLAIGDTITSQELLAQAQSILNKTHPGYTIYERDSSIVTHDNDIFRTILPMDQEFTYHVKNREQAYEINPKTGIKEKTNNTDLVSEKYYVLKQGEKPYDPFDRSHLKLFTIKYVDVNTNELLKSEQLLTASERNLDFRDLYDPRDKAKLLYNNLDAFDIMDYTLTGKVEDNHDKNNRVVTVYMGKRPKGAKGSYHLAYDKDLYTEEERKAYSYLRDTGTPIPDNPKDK

[14] = target: T3, G-protein coupled receptor 35; test: SAR analysis of Antagonists of the GPR35 Receptor using an Image-Based Assay - Set 3. [Related pubchem assays (depositor defined):AID2013, AID2026]; type: functional
[15] = target: Photoreceptor-specific nuclear receptor (Homo sapiens, UniProt Q9Y5X4); test: ligands suppressing NR2E3 nuclear receptor activity – biochemical, TR-FRET, dose response (AID 463256); type: functional
Chain of Photoreceptor-specific nuclear receptor (Q9Y5X4 whole entry): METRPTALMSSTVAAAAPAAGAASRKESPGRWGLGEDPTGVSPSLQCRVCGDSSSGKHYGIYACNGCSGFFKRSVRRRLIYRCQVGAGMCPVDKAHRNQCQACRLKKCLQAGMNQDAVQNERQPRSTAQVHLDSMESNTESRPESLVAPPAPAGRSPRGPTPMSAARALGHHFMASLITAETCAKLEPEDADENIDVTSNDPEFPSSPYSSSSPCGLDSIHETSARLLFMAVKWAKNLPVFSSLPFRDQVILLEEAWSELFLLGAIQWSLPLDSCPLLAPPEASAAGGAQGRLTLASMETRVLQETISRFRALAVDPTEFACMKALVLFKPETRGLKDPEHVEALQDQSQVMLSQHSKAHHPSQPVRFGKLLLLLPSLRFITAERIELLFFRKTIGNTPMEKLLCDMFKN

[16] = target: T5, G-protein coupled receptor 55; test: blockade of LPI-induced GPR55 arrestin translocation – imaging, U2OS, beta-arrestin-GFP, LPI agonist, set 2, SAR follow-up (AID 2820); type: functional
Streptococcus = test: GAS UMAA2166 growth inhibition – luminescence, BacTiterGlo, counter-screen for streptokinase expression inhibitor project, dose response (AID 1915); type: functional, organism-based;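 also: potency for reduction of bacterial viability or growth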
[17] = Luminescence Cell-Based Dose Response HTS to Identify Activators of Luciferase Translation or Activity in H4 […] Cells. [Related pubchem assays: 1829 (Project Summary), 1814 (Primary HTS)]; type: functional
[18] = target: Potassium voltage-gated channel subfamily KQT member 2 (Rattus norvegicus, UniProt O88943); test: rat KCNQ2 current potentiators – automated patch clamp, KCNQ2-CHO cells, SAR follow-up (AID 493113); type: functional
Chain of Potassium voltage-gated channel subfamily KQT member 2 (O88943 whole entry): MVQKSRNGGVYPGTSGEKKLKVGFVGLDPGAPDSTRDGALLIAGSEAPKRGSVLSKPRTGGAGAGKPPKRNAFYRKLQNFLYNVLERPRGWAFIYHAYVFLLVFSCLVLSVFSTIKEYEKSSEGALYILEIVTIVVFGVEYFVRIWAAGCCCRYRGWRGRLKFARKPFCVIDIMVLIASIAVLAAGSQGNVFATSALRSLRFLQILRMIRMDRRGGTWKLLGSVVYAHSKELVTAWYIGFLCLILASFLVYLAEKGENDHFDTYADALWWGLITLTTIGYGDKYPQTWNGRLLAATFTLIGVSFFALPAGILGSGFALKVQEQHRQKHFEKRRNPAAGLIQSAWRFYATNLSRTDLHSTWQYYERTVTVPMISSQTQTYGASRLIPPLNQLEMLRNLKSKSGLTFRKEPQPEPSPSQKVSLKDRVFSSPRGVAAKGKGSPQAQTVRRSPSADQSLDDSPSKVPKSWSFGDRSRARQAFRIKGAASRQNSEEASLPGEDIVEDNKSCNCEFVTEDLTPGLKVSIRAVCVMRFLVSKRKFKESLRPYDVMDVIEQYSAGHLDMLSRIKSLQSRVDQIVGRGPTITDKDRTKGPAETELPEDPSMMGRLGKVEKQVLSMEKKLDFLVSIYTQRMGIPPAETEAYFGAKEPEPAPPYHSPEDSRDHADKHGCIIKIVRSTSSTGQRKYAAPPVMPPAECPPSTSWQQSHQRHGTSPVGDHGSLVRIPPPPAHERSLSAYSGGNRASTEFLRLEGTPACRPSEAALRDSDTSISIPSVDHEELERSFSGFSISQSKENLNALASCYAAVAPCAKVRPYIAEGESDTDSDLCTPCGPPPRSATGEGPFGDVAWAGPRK

H4 = test: Luminescence Cell-Based Dose Response HTS to Identify Activators of 5'UTR Stem-Loop Driven Prion Protein mRNA Translation in H4 Neuroglioblastoma Cells. [Related pubchem assays: 1829 (Project Summary), 1814 (Primary HTS)]; type: functional; details: Homo sapiens

Chain of Protein Wnt-3a (P27467 whole entry): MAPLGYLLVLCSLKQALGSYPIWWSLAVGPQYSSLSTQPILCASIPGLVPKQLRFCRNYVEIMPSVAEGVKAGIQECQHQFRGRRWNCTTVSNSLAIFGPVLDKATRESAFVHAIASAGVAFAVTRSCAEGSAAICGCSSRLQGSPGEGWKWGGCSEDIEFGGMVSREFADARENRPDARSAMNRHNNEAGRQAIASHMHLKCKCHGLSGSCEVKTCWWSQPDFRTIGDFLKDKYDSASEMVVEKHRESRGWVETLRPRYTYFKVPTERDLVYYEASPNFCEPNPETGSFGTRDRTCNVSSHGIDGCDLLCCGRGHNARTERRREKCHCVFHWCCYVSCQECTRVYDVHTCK

With COc1ccc(-c2c(C#N)c(N)nc3c2CCc2ccccc2-3)cc1OC the IC50 (Protein Wnt-3a) was 17.9 µM (active), the EC50 [1] was 5.59 µM (active) and the EC50 [2] was 43.6 µM (not active). The IC50 [3] was 38.1 µM (inactive), the EC50 [4] was > 49.8 µM (inactive) and the EC50 [5] was 5.19 µM (active).

For Cc1nnc(-c2cccc(Br)c2)c2cn(-c3ccc(Br)cc3)nc12, the EC50 (Cannabinoid receptor 1 [6]) was > 32 µM (inactive), the IC50 (Cannabinoid receptor 1 [7]) was 13.9 µM (inactive) and the AC50 (Cytochrome P450 2D6) was 12.6 µM (inconclusive). The EC50 [8] was > 32 µM (inactive), the EC50 (Cannabinoid receptor 2 [9]) was > 32 µM (inactive) and the IC50 (Cannabinoid receptor 2 [10]) was > 32 µM (inactive). The IC50 [11] was 14.5 µM (not active), the EC50 [12] was 3.53 µM (active) and the IC50 [13] was 0.915 µM (active). For the same molecule, the AC50 (Cytochrome P450 3A4) was “inconclusive”, the EC50 (Streptokinase A) was 19.2 µM (active) and the IC50 [14] was > 32 µM (inactive). The IC50 [15] was 18.8 µM (not active), the IC50 [16] was 0.893 µM (active) and the EC50 (Streptococcus) was 28.4 µM (active).

With CC(C)c1ccc(NC(=O)C2CC3CCC2C3)cc1 (centres undefined) the EC50 [17] was 0.432 µM (active), the EC50 [18] was 0.72 µM (active) and the EC50 (H4) was 65.4 µM (active).
